According to US10538535B2, “Antitumoral compounds” (priority 2017, dated 2020):
Where two headings read alike, the source gives them in different places.

How the values were obtained:
[1] = test system: H82 tumors; assay: In vivo xenograft, human lung (SCLC) H82
Description: Female athymic nu/nu mice (Harlan Laboratories Models, S. L. Barcelona, Spain or Envigo, Spain) were utilized for all experiments. Animal were housed in individually ventilated cages Sealsafe® Plus, Techniplast S.P.A.), up to ten per cage on a 12-hour light-dark cycle at 21-23° C. and 40-60% humidity. Mice were allowed free access to irradiated standard rodent diet (Tecklad 2914C) and sterilized water. Animals were acclimated for at least 5 days prior to tumor implantation with a tumor cell suspension.
H82 cells were grown as a suspension and maintained by addition of fresh medium, as the cell density increases, every 2 to 3 days. Every week, culture was reestablished by centrifugation of the suspension with subsequent resuspension in fresh medium at a concentration of 1×10^5 cell/ml. Animals were subcutaneously implanted (on the right flank using 26 G needle and a 1 cc syringe) at 4-6 weeks of age with 5×10^6 H82 cells, suspended in 0.05 mL of a solution consisting of 50% Matrigel® (Corning Incorporated Life Sciences) and 50% medium without serum or antibiotics.
(§1) Treatment tolerability was assessed by monitoring body weight evolution, clinical signs of systemic toxicity, as well as evidences of local damage in the injection site.
(§2) In xenograft studies with other cell lines: • Tumor volume was calculated using the equation (a·b^2)/2, where a: length (longest diameter) and b: width (shortest diameter) were measured in mm by using digital caliper (Fowler Sylvac, S235PAT).
(§3) Treatments producing >20% lethality and/or 20% net body weight loss were considered toxic.
Tables and figures summarize the data obtained from complete experimental groups, i.e. those groups keeping the initial number of animals, n=8-10.

[2] = MTD (Maximum Tolerated Dose) determination, single iv administration; type: in vivo; settings: female, mouse, in vivo; mice; iv/SD
Description: Female CD-1 or Athymic Nude-Fox1 nu/nu mice (Envigo) were utilized for all experiments. […] Animals were acclimated for five days prior to being individually tattoo-identified. Animal protocols were reviewed and approved according to the regional Institutional Animal Care and Use Committees.
Mice were randomly allocated into experimental groups and intravenously administered, once for the MTD (Maximum Tolerated Dose) determination or one administration a week during three consecutive weeks, for the MTMD (Maximum Tolerated Multiple Dose) determination study. The animals were administered with white formulation or with compound dissolved in the experimental formulation at different concentrations. The volume administered was always 10 mL/kg. Once administered, animals were monitored for clinical signs of systemic toxicity, changes in body weight and mortality up to 14 days after the administration.

[3] = test system: MDA-MB-231 tumors
Description: Female athymic nu/nu mice (Harlan Laboratories Models, S. L. Barcelona, Spain or Envigo, Spain) were utilized for all experiments. Animal were housed in individually ventilated cages Sealsafe® Plus, Techniplast S.P.A.), up to ten per cage on a 12-hour light-dark cycle at 21-23° C. and 40-60% humidity. […] Animals were acclimated for at least 5 days prior to tumor implantation with a tumor cell suspension.
MDA-MB-231 cells were maintained in vitro at 37° C. with 5% CO2 in Dulbecco's Modified Eagle's Medium (Sigma-Aldrich, Co). Culture cells were passaged every 3 to 5 days upon reaching confluence.
as §1, §2, §3

SMILES: COc1c(C)cc2c(c1O)[C@@H]1[C@@H]3[C@@H]4SC[C@]5(N[C@H](C)Cc6c5[nH]c5ccccc65)C(=O)OC[C@@H](c5c6c(c(C)c(OC(C)=O)c54)OCO6)N3[C@@H](O)[C@H](C2)N1C [C]
- Median Tumor Volume ([1]; Table 50, Day 0, iv weekly, 39-S […], C 3 mg/Kg): 170.5 mm^3
- Median Tumor Volume ([1]; Table 50, Day 2, iv weekly, 39-S […], C 3 mg/Kg): 265.3 mm^3
- Median Tumor Volume ([1]; Table 50, Day 5, iv weekly, 39-S […], C 3 mg/Kg): 488.7 mm^3
- Median Tumor Volume ([1]; Table 50, Day 7, iv weekly, 39-S […], C 3 mg/Kg): 760.0 mm^3
- Median Tumor Volume ([1]; Table 50, Day 9, iv weekly, 39-S […], C 3 mg/Kg): 899.5 mm^3
- Median Tumor Volume ([1]; Table 50, Day 12, iv weekly, 39-S […], C 3 mg/Kg): 1038.5 mm^3
- Median Tumor Volume ([1]; Table 50, Day 14, iv weekly, 39-S […], C 3 mg/Kg): 1213.4 mm^3
- Median Tumor Volume ([1]; Table 50, Day 16, iv weekly, 39-S […], C 3 mg/Kg): 1256.4 mm^3
- Median Tumor Volume ([1]; Table 50, Day 19, iv weekly, 39-S […], C 3 mg/Kg): 1741.5 mm^3
- Median Tumor Volume ([1]; Table 50, Day 21, iv weekly, 39-S […], C 3 mg/Kg): 1878.8 mm^3
- Median Tumor Volume ([1]; Table 50, Day 23, iv weekly, 39-S […], C 3 mg/Kg): 2057.0 mm^3
- MTD at 14 days [2]: 3 mg/kg
- Median Tumor Volume ([3]; iv, 3 mg/kg, 0 h): 149.4 mm^3
- Median Tumor Volume ([3]; iv, 3 mg/kg, 48 h): 217.1 mm^3
- Median Tumor Volume ([3]; iv, 3 mg/kg, 120 h): 281.3 mm^3
- Median Tumor Volume ([3]; iv, 3 mg/kg, 168 h): 338.6 mm^3
- Median Tumor Volume ([3]; iv, 3 mg/kg, 336 h): 436.9 mm^3
- Median Tumor Volume ([3]; iv, 3 mg/kg, 384 h): 585.7 mm^3
- Median Tumor Volume ([3]; iv, 3 mg/kg, 456 h): 774.7 mm^3
- Median Tumor Volume ([3]; iv, 3 mg/kg, 504 h): 965.9 mm^3
- Median Tumor Volume ([3]; iv, 3 mg/kg, 552 h): 1215.2 mm^3
- Median Tumor Volume ([3]; iv, 3 mg/kg, 672 h): 1785.3 mm^3
- Median Tumor Volume ([3]; iv, 3 mg/kg, 720 h): 2037.1 mm^3

SMILES: COc1c(C)cc2c(c1O)[C@@H]1[C@@H]3[C@@H]4SC[C@]5(N[C@@H](C)Cc6c5[nH]c5ccccc65)C(=O)OC[C@@H](c5c6c(c(C)c(OC(C)=O)c54)OCO6)N3[C@@H](O)[C@H](C2)N1C [D]
- Median Tumor Volume ([1]; Table 33, Day 0.0, iv Days 0, 7, 14, 12-R 0.05 mg/kg, Compound D 0.5 mg/kg): 169.4 mm^3
- Median Tumor Volume ([1]; Table 33, Day 2.0, iv Days 0, 7, 14, 12-R 0.05 mg/kg, Compound D 0.5 mg/kg): 340.6 mm^3
- Median Tumor Volume ([1]; Table 33, Day 5.0, iv Days 0, 7, 14, 12-R 0.05 mg/kg, Compound D 0.5 mg/kg): 443.3 mm^3
- Median Tumor Volume ([1]; Table 33, Day 7.0, iv Days 0, 7, 14, 12-R 0.05 mg/kg, Compound D 0.5 mg/kg): 496.2 mm^3
- Median Tumor Volume ([1]; Table 33, Day 9.0, iv Days 0, 7, 14, 12-R 0.05 mg/kg, Compound D 0.5 mg/kg): 614.1 mm^3
- Median Tumor Volume ([1]; Table 33, Day 12.0, iv Days 0, 7, 14, 12-R 0.05 mg/kg, Compound D 0.5 mg/kg): 665.5 mm^3
- Median Tumor Volume ([1]; Table 33, Day 14.0, iv Days 0, 7, 14, 12-R 0.05 mg/kg, Compound D 0.5 mg/kg): 1041.6 mm^3
- Median Tumor Volume ([1]; Table 33, Day 16.0, iv Days 0, 7, 14, 12-R 0.05 mg/kg, Compound D 0.5 mg/kg): 1151.2 mm^3
- Median Tumor Volume ([1]; Table 33, Day 19.0, iv Days 0, 7, 14, 12-R 0.05 mg/kg, Compound D 0.5 mg/kg): 1516.7 mm^3
- Median Tumor Volume ([1]; Table 33, Day 21.0, iv Days 0, 7, 14, 12-R 0.05 mg/kg, Compound D 0.5 mg/kg): 1748.0 mm^3
- Median Tumor Volume ([1]; Table 57, Day 0, iv weekly, 47-R 0.1 mg/Kg, Compound D 0.5 mg/Kg): 169.4 mm^3
- Median Tumor Volume ([1]; Table 57, Day 2, iv weekly, 47-R 0.1 mg/Kg, Compound D 0.5 mg/Kg): 340.6 mm^3
- Median Tumor Volume ([1]; Table 57, Day 5, iv weekly, 47-R 0.1 mg/Kg, Compound D 0.5 mg/Kg): 443.3 mm^3
- Median Tumor Volume ([1]; Table 57, Day 7, iv weekly, 47-R 0.1 mg/Kg, Compound D 0.5 mg/Kg): 496.2 mm^3
- Median Tumor Volume ([1]; Table 57, Day 9, iv weekly, 47-R 0.1 mg/Kg, Compound D 0.5 mg/Kg): 614.1 mm^3
- Median Tumor Volume ([1]; Table 57, Day 12, iv weekly, 47-R 0.1 mg/Kg, Compound D 0.5 mg/Kg): 665.5 mm^3
- Median Tumor Volume ([1]; Table 57, Day 14, iv weekly, 47-R 0.1 mg/Kg, Compound D 0.5 mg/Kg): 1041.6 mm^3
- Median Tumor Volume ([1]; Table 57, Day 16, iv weekly, 47-R 0.1 mg/Kg, Compound D 0.5 mg/Kg): 1151.2 mm^3
- Median Tumor Volume ([1]; Table 57, Day 19, iv weekly, 47-R 0.1 mg/Kg, Compound D 0.5 mg/Kg): 1516.7 mm^3
- Median Tumor Volume ([1]; Table 57, Day 21, iv weekly, 47-R 0.1 mg/Kg, Compound D 0.5 mg/Kg): 1748.0 mm^3
- Median Tumor Volume ([3]; Table 22, Day 0, iv Days 0, 7, 14): 129.5 mm^3
- Median Tumor Volume ([3]; Table 22, Day 7, iv Days 0, 7, 14): 147.9 mm^3
- Median Tumor Volume ([3]; Table 22, Day 14, iv Days 0, 7, 14): 186.4 mm^3
- Median Tumor Volume ([3]; Table 22, Day 21, iv Days 0, 7, 14): 136.5 mm^3
- Median Tumor Volume ([3]; Table 22, Day 28, iv Days 0, 7, 14): 290.7 mm^3
- Median Tumor Volume ([3]; Table 22, Day 35, iv Days 0, 7, 14): 431.7 mm^3
- Median Tumor Volume ([3]; Table 22, Day 42, iv Days 0, 7, 14): 770.1 mm^3
- Median Tumor Volume ([3]; Table 22, Day 49, iv Days 0, 7, 14): 970.0 mm^3
- Median Tumor Volume ([3]; Table 22, Day 56, iv Days 0, 7, 14): 1461.9 mm^3
- Median Tumor Volume ([3]; Table 22, Day 63, iv Days 0, 7, 14): 1526.4 mm^3
- Median Tumor Volume ([3]; iv, 0.5 mg/kg, 0 h): 149.6 mm^3
- Median Tumor Volume ([3]; iv, 0.5 mg/kg, 48 h): 217.2 mm^3
- Median Tumor Volume ([3]; iv, 0.5 mg/kg, 120 h): 284.5 mm^3
- Median Tumor Volume ([3]; iv, 0.5 mg/kg, 168 h): 310.0 mm^3
- Median Tumor Volume ([3]; iv, 0.5 mg/kg, 336 h): 237.7 mm^3
- Median Tumor Volume ([3]; iv, 0.5 mg/kg, 384 h): 261.2 mm^3
- Median Tumor Volume ([3]; iv, 0.5 mg/kg, 456 h): 251.3 mm^3
- Median Tumor Volume ([3]; iv, 0.5 mg/kg, 504 h): 219.9 mm^3
- Median Tumor Volume ([3]; iv, 0.5 mg/kg, 552 h): 221.8 mm^3
- Median Tumor Volume ([3]; iv, 0.5 mg/kg, 672 h): 320.3 mm^3
- Median Tumor Volume ([3]; iv, 0.5 mg/kg, 720 h): 401.6 mm^3
- Median Tumor Volume ([3]; iv, 0.5 mg/kg, 840 h): 629.2 mm^3
- Median Tumor Volume ([3]; iv, 0.5 mg/kg, 888 h): 670.7 mm^3
- Median Tumor Volume ([3]; iv, 0.5 mg/kg, 960 h): 669.9 mm^3
- Median Tumor Volume ([3]; iv, 0.5 mg/kg, 1056 h): 798.1 mm^3
- Median Tumor Volume ([3]; iv, 0.5 mg/kg, 1128 h): 857.7 mm^3
- Median Tumor Volume ([3]; iv, 0.5 mg/kg, 1176 h): 870.7 mm^3
- Median Tumor Volume ([3]; iv, 0.5 mg/kg, 1224 h): 925.8 mm^3
- Median Tumor Volume ([3]; iv, 0.5 mg/kg, 1296 h): 1005.4 mm^3
- Median Tumor Volume ([3]; iv, 0.5 mg/kg, 1344 h): 1064.2 mm^3
- Median Tumor Volume ([3]; iv, 0.5 mg/kg, 1392 h): 1235.6 mm^3
- Median Tumor Volume ([3]; iv, 0.5 mg/kg, 1464 h): 1367.8 mm^3
- Median Tumor Volume ([3]; iv, 0.5 mg/kg, 1512 h): 1553.7 mm^3
